This passage reports IC50 and melting point results from patent publication US8569306B2, “JNK modulators” (Hoffmann-La Roche, Inc., priority 2009, dated 2013).

For one data set, the target named is Human JNK2α2 (Homo sapiens (Human), UniProt P45984). The experiment in a line: JNK assay in vitro, phosphorylation of GST-ATF2 (19-96) with [γ-33P] ATP. Type of data set: biochemical. The note with it: Human JNK2α2, 1 nM enzyme, 1 μM ATF2, 8 μM ATP; read-out: JNK2 − IC50. How it is done: (§1) JNK activity was measured by phosphorylation of GST-ATF2 (19-96) with [γ-^33P] ATP. […] Human JNK2α2 assay contains 1 nM enzyme, 1 μM ATF2, 8 μM ATP with 1 μCi [γ-^33P] ATP. Human JNK1α1 assay contains 2 nM enzyme, 1 μM ATF2, 6 μM ATP with 1 μCi [γ-^33P] ATP. Human JNK3 (Upstate Biotech #14-501M) assay contains 2 nM enzyme, 1 μM ATF2, 4 μM ATP with 1 μCi [γ-^33P] ATP. The enzyme assay was carried out in the presence or absence of several compound concentrations. JNK and compound were pre-incubated for 10 min, followed by initiation of the enzymatic reaction by adding ATP and the substrate. The reaction mixture was incubated at 30° C. for 30 min. At the end of incubation, the reaction was terminated by transferring 25 μl of the reaction mixture to 150 μl of 10% glutathione Sepharose® slurry (Amersham #27-4574-01) containing 135 mM EDTA. The reaction product was captured on the affinity resin, and washed on a filtration plate (Millipore, MABVNOB50) with phosphate buffered saline for six times to remove free radionucleotide. The incorporation of ^33P into ATF2 was quantified on a microplate scintillation counter (Packard Topcount). Compound inhibition potency on JNK was measured by IC50 value generated from ten concentration inhibition curves fitted into the 3-parameter model: % inhibition=Maximum/(1+(IC50/[Inhibitor])^slope). Data were analyzed on Microsoft Excel for parameter estimation.

For another data set, the target named is Human JNK1α1 (Homo sapiens (Human), UniProt P45983). The experiment in a line: JNK assay in vitro, phosphorylation of GST-ATF2 (19-96) with [γ-33P] ATP. It is filed as biochemical. The note with it: Human JNK1α1, 2 nM enzyme, 1 μM ATF2, 6 μM ATP; read-out: JNK1 − IC50. How it is done: as §1
Chain of Human JNK1α1 (P45983 other isoform, or with tags, fused parts or gaps): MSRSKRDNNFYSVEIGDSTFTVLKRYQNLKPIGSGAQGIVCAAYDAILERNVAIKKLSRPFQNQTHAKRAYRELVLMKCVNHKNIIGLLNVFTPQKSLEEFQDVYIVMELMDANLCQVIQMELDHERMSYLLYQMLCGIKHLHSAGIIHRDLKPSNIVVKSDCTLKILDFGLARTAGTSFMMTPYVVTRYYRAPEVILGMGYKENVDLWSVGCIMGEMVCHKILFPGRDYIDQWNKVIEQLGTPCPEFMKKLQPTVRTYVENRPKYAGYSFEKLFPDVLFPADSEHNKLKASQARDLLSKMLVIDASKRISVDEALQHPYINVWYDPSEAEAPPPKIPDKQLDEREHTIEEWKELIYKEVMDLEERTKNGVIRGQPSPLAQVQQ

Chain of Human JNK2α2 (P45984 whole entry): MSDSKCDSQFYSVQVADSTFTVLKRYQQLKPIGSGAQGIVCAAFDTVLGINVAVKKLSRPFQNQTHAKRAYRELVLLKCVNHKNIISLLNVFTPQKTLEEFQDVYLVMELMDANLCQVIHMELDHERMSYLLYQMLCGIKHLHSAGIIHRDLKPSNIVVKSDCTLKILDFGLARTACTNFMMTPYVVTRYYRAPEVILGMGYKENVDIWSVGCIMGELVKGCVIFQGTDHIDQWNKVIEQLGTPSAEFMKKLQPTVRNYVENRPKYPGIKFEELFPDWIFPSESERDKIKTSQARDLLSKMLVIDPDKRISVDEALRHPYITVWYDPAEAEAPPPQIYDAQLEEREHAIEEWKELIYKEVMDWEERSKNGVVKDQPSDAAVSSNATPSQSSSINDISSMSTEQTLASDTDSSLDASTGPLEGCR

The IC50 is the concentration that inhibits the measured activity by half. As a reminder, the melting point is the temperature of the solid-liquid transition. `CC(C)(O)c1cccn2c(-c3ccnc(N[C@H]4CC[C@H](CS(C)(=O)=O)CC4)n3)cnc12` [Compound 1, 2-{3-[2-(4-methanesulfonylmethyl-cyclohexylamino)-pyrimidin-4-yl]-imidazo[1,2-a]pyridin-8-yl}-propan-2-ol] displayed a melting point of 223 to 224 °C. Further, the IC50 on Human JNK2α2 is 295 nM.
With `CC(C)(O)c1cccn2c(-c3ccnc(N[C@H]4CC[C@H](C(=O)N5CCC(O)CC5)CC4)n3)cnc12` [Compound 2, (4-{4-[8-(1-hydroxy-1-methyl-ethyl)-imidazo[1,2-a]pyridin-3-yl]-pyrimidin-2-ylamino}-cyclohexyl)-(4-hydroxy-piperidin-1-yl)-methanone], the melting point lay within 188 to 190 °C. In addition, the IC50 at Human JNK2α2 was found to be 369 nM.
With `CC(C)(O)c1cccn2c(-c3ccnc(N[C@H]4CC[C@H](NS(C)(=O)=O)CC4)n3)cnc12` [Compound 3, N-(4-{4-[8-(1-Hydroxy-1-methyl-ethyl)-imidazo[1,2-a]pyridine-3-yl]-pyrimidin-2-ylamino}-cyclohexyl)-methanesulfonamide], the melting point lay in the range of 249 to 250 °C.
`CN(C)S(=O)(=O)N[C@H]1CC[C@H](Nc2nccc(-c3cnc4c(C(C)(C)O)cccn34)n2)CC1` [Compound 4, N-(4-{4-[8-(1-Hydroxy-1-methyl-ethyl)-imidazo[1,2-a]pyridine-3-yl]-pyrimidin-2-ylamino}-cyclohexyl)-(N,N-dimethylamino)sulfonamide]: the melting point is > 300 °C. In addition, the half-inhibitory concentration (IC50) at Human JNK2α2 is 124 nM.
Take `CS(=O)(=O)CCCOc1cccn2c(-c3ccnc(N[C@H]4CC[C@H](C(=O)N5CCC(O)CC5)CC4)n3)cnc12` [Compound 5, (4-Hydroxy-piperidin-1-yl)-(4-{4-[8-(3-methanesulfonyl-propoxy)-imidazo[1,2-a]pyridin-3-yl]-pyrimidin-2-ylamino}-cyclohexyl)-methanone]: the melting point lay within 258 to 259 °C. Besides, the IC50 at Human JNK2α2 was 50.3 nM. Also, on Human JNK1α1, the IC50 was 21.6 nM.
Molecule `O=C([C@H]1CC[C@H](Nc2nccc(-c3cnc4c(OCc5ccccc5)cccn34)n2)CC1)N1CCC(O)CC1` [Compound 6, {4-[4-(8-Benzyloxy-imidazo[1,2-a]pyridin-3-yl)-pyrimidin-2-ylamino]-cyclohexyl}-(4-hydroxy-piperidin-1-yl)-methanone] came in with a melting point of 210 to 212 °C. In addition, at Human JNK2α2, the IC50 came out at 55.9 nM. Moreover, the IC50 on Human JNK1α1 worked out at 33.3 nM.
In the same order, the values of `CS(=O)(=O)N[C@H]1CC[C@H](Nc2nccc(-c3cnc4c(OCc5ccccc5)cccn34)n2)CC1` [Compound 7, N-{4-[4-(8-benzyloxy-imidazo[1,2-a]pyridin-3-yl)-pyrimidin-2-ylamino]-cyclohexyl}-methanesulfonamide] are 236.9 to 241 °C, 52.7 nM and 23.7 nM.
`CCOC(=O)[C@H]1CC[C@H](Nc2nccc(-c3cnc4c(OCc5ccccc5)cccn34)n2)CC1` [Compound 8, 4-[4-(8-benzyloxy-imidazo[1,2-a]pyridine-3-yl)-pyrimidin-2-ylamino]-cyclohexanecarboxylic acid ethyl ester] came in with a melting point of 147 to 149 °C. At Human JNK2α2, the concentration for half-maximal inhibition (IC50) was 104 nM. In addition, the 50% inhibitory concentration (IC50) at Human JNK1α1 amounted to 48.9 nM.
For `O[C@H]1CC[C@H](Nc2nccc(-c3cnc4c(OCc5ccccc5)cccn34)n2)CC1` [Compound 9, 4-[4-(8-Benzyloxy-imidazo[1,2-a]pyridin-3-yl)-pyrimidin-2-yl-amino]-cyclohexanol] the same measures were 236 to 238 °C, 49.4 nM and 26.9 nM.
In the same order, the values of `CS(=O)(=O)N[C@H]1CC[C@H](Nc2nccc(-c3cnc4ccccn34)n2)CC1` [Compound 10, N-[4-(4-Imidazo[1,2-a]pyridin-3-yl-pyrimidin-2-ylamino)-cyclohexyl]-methanesulfonamide] are 259 to 261 °C, 214 nM and 56.7 nM.
As for `O[C@H]1CC[C@H](Nc2nccc(-c3cnc4ccccn34)n2)CC1` [Compound 11, 4-(4-Imidazo[1,2-a]pyridin-3-yl-pyrimidin-2-ylamino)-cyclohexanol], the IC50 at Human JNK2α2 was determined as 254 nM; at Human JNK1α1, 86.6 nM.
